Reference: patent US6423689B1, “Peptidyl calcium channel blockers” (Warner-Lambert Company, priority 1997, dated 2002)

Molecular target: T1, N-type Ca2+ channels in IMR-32 cells (Homo sapiens, UniProt Q00975)
T1 construct: host or cells: IMR-32 cells, differentiated with dibutyryl cAMP and bromodeoxyuridine
Assay: Inhibition of N-type calcium flux in IMR-32 cells (Indo-1 fluorescence, nitrendipine present)
Type: cell-based
Conditions: for IC50: IMR-32 cells, 5 μM nitrendipine, K+ depolarization
Outline: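 Differentiated IMR-32 cells (7–13 days) were loaded with 5 μM Indo-1 AM, preincubated with compound for 10 min at 30° C, and depolarized with KCl/CaCl2 stimulation solution, with 5 μM nitrendipine blocking L-channels. Peak-minus-basal 400/490 nm emission ratio was plotted against drug concentration, and IC50 came from four-parameter logistic fits.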

T1 sequence (Q00975 whole entry): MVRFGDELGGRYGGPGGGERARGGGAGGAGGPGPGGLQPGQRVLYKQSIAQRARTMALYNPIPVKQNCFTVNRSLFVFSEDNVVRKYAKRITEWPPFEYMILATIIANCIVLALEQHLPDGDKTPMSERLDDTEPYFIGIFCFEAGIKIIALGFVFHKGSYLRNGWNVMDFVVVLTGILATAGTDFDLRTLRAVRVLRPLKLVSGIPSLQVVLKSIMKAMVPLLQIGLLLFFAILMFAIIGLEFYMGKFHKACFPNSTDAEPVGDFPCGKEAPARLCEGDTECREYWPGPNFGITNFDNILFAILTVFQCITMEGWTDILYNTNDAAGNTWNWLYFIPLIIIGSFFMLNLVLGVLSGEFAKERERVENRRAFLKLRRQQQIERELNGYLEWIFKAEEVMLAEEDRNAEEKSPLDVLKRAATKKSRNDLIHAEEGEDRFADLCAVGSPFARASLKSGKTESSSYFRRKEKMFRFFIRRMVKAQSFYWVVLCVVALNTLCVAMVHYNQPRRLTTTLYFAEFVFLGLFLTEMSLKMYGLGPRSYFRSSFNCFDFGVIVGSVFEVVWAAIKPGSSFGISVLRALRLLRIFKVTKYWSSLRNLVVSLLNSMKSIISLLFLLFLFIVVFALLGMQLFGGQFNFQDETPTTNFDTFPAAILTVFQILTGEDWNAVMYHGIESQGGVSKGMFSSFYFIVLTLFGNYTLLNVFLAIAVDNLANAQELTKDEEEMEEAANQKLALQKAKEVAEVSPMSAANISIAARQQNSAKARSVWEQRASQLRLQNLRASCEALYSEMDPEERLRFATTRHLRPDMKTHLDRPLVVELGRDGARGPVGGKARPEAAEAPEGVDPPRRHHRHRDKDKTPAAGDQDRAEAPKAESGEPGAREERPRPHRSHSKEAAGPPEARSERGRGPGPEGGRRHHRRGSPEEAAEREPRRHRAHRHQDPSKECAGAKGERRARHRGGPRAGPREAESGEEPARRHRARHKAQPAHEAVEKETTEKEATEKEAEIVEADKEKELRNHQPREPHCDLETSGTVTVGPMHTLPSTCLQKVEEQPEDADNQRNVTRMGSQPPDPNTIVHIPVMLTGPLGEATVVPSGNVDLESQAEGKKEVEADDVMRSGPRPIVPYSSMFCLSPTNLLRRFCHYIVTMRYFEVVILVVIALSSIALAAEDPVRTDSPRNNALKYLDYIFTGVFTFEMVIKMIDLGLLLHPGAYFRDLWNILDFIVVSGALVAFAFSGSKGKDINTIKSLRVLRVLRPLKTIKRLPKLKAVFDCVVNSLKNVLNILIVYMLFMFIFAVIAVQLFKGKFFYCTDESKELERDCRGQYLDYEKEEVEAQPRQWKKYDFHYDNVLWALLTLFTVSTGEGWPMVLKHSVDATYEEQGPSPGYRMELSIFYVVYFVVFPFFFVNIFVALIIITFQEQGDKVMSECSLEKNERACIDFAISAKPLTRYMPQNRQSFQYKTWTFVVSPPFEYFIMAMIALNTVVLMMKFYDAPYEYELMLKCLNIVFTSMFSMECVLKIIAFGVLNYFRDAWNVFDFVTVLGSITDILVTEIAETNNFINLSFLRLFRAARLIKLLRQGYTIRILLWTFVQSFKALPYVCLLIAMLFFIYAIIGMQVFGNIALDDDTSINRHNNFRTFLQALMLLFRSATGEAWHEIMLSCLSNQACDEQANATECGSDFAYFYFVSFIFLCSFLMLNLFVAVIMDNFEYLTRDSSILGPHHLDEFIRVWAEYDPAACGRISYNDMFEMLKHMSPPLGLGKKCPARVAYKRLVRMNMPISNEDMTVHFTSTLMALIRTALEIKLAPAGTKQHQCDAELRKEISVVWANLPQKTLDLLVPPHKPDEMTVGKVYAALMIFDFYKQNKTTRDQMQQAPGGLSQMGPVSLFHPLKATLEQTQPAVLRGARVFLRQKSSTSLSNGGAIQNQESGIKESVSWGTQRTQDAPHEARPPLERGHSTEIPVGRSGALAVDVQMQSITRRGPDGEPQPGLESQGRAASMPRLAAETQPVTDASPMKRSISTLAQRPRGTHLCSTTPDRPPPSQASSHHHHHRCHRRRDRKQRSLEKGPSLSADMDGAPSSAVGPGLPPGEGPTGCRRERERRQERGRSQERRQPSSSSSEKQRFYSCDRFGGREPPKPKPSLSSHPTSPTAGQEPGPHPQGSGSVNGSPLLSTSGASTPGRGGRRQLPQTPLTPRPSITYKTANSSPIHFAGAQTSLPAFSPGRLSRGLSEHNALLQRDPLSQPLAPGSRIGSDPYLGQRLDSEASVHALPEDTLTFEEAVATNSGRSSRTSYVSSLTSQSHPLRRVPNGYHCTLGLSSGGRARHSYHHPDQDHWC
T1 sequence (P54289 25-956 partner limits assumed): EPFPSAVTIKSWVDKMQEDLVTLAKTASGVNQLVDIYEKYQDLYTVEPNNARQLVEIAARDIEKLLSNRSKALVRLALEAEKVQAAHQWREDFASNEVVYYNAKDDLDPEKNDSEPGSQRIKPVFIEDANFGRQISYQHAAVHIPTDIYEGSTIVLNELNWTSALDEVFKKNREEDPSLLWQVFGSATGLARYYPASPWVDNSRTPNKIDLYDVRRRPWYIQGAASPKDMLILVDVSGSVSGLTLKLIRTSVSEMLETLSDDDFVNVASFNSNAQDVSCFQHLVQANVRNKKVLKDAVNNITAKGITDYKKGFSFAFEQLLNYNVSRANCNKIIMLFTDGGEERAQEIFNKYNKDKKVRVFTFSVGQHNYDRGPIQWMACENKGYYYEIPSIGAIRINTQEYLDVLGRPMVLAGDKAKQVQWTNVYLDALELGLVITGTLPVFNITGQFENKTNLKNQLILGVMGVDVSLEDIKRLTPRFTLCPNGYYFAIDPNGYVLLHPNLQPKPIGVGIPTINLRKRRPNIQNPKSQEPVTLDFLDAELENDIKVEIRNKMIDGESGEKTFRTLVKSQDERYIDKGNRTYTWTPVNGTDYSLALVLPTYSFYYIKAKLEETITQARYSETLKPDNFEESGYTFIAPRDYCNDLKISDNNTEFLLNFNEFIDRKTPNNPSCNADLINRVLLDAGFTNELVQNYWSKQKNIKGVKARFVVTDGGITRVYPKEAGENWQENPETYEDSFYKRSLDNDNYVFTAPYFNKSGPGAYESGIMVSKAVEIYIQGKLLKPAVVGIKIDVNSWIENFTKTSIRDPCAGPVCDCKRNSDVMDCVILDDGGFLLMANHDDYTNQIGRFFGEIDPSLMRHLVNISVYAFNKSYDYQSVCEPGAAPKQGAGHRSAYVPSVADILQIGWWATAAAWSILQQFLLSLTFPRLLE
T1 sequence (P54289 957-1103 partner limits assumed): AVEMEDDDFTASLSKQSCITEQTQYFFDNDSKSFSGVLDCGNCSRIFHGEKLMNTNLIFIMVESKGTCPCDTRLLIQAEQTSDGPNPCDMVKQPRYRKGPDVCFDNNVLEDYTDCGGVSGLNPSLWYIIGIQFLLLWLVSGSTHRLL
T1 sequence (P54284 whole entry partner): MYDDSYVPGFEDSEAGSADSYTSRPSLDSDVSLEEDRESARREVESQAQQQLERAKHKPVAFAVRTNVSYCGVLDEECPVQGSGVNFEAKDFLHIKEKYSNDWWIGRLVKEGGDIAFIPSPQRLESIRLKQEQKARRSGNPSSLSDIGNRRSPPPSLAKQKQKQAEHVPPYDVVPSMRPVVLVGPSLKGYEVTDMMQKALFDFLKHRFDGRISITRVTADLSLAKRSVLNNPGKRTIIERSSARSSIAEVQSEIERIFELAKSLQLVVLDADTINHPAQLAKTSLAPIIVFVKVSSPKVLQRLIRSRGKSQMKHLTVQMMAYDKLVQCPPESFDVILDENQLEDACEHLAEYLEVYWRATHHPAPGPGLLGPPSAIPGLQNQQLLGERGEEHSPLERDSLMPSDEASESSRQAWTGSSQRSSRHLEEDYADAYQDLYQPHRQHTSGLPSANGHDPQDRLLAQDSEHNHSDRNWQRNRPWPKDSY

Row | SMILES | Inhibition of Calcium Flux in IMR-32 Cells % Inhibition at 10 μM [%] | Inhibition of Calcium Flux in IMR-32 Cells % Inhibition at 1 μM [%] | IC50 [µM]
1 | Cc1nn(-c2ccccc2)nc1C(=O)N[C@@H](CC(C)C)C(=O)N[C@@H](Cc1ccc(OCc2ccccc2)cc1)C(=O)OC(C)(C)C (relative stereo) [Example 121, [S-(R*,R*)]-3-(4-Benzyloxy-phenyl)-2-{4-methyl-2-[(5-methyl-2-phenyl-2H-[1,2,3]triazole-4-carbonyl)-amino]-pentanoylamino}-propionic acid tert-butyl ester] | 25 | – | –
2 | CC(C)C[C@H](NC(=O)Cc1cccs1)C(=O)N[C@@H](Cc1ccc(OCc2ccccc2)cc1)C(=O)OC(C)(C)C (relative stereo) [Example 122, [S-(R*,R*)]-3-(4-Benzyloxy-phenyl)-2-[4-methyl-2-(2-thiophen-2-yl-acetylamino)pentanoylamino]-propionic acid tert-butyl ester] | 84 | – | –
3 | CC(C)C[C@H](NC(=O)c1cccnc1)C(=O)N[C@@H](Cc1ccc(OCc2ccccc2)cc1)C(=O)OC(C)(C)C (relative stereo) [Example 124, [S-(R*,R*)]-3-(4-Benzyloxy-phenyl)-2-{4-methyl-2-[(pyridine-3-carbonyl)-amino]pentanoylamino}-propionic acid tert-butyl ester] | 60 | – | –
4 | CC(C)C[C@H](NC(=O)c1cnc2ccccc2n1)C(=O)N[C@@H](Cc1ccc(OCc2ccccc2)cc1)C(=O)OC(C)(C)C (relative stereo) [Example 126, [S-(R*,R*)]-3-(4-Benzyloxy-phenyl)-2-{4-methyl-2-[(quinoxaline-2-carbonyl)-amino]pentanoylamino}-propionic acid tert-butyl ester] | 28 | – | –
5 | CC(C)C[C@H](NC(=O)C(F)(F)C(F)(F)F)C(=O)C[C@H](Cc1ccc(OCc2ccccc2)cc1)C(=O)OC(C)(C)C (relative stereo) [Example 127, [S-(R*,R*)]-2-(4-Benzyloxy-benzyl)-7-methyl-4-oxo-5-(2,2,3,3,3-pentafluoro-propionylamino)-octanoic acid tert-butyl ester] | 61 | – | –
6 | Cc1onc(-c2ccccc2)c1C(=O)N[C@@H](CC(C)C)C(=O)N[C@@H](Cc1ccc(OCc2ccccc2)cc1)C(=O)OC(C)(C)C (relative stereo) [Example 131, [(S-(R*,R*)]-3-(4-Benzyloxy-phenyl)-2-{4-methyl-2-[(5-methyl-3-phenyl-isoxazole-4-carbonyl)amino]-pentanoylamino}-propionic acid tert-butyl ester] | 44 | – | –
7 | CC(C)C[C@H](NC(=O)N1CCCCCC1)C(=O)N[C@@H](Cc1ccc(N(Cc2ccccc2)Cc2ccccc2)cc1)C(=O)NC(C)(C)C (relative stereo) [Example 133, [S-(R*,R*)]-Azepane-1-carboxylic acid {1-[2-(4-dibenzylamino-phenyl)-1-tert-butylcarbamoyl-ethylcarbamoyl]-3-methyl-butyl}-amide] | 72 | 54 | –
8 | CC(=O)Nc1ccc(NC(=O)[C@H](Cc2ccc(OCc3ccccc3)cc2)NC(=O)[C@H](CC(C)C)NC(=O)N2CCCCCC2)cc1 (relative stereo) [Example 216, [S-(R*,R*)]-Azepane-1-carboxylic acid {1-[1-(4-acetylamino-phenylcarbamoyl)-2-(4-benzyloxy-phenyl)-ethylcarbamoyl]-3-methyl-butyl}-amide] | 37 | 16 | –
9 | CC(C)C[C@H](NC(=O)N1CCCCCC1)C(=O)N[C@@H](Cc1ccc(OCc2ccccc2)cc1)C(=O)NCc1ccc2c(c1)OCO2 (relative stereo) [Example 222, [S-(R*,R*)]-Azepane-1-carboxylic acid {1-[1-[(benzo[1,3]dioxol-5-ylmethyl)-carbamoyl]-2-(4-benzyloxy-phenyl)-ethylcarbamoyl]-3-methyl-butyl}-amide] | 84 | 36 | –
10 | COc1cc(NC(=O)[C@H](Cc2ccc(OCc3ccccc3)cc2)NC(=O)[C@H](CC(C)C)NC(=O)N2CCCCCC2)cc(OC)c1OC (relative stereo) [Example 223, [S-(R*,R*)]-Azepane-1-carboxylic acid {-1-[2-(4-benzyloxy-phenyl)-1-(3,4,5-trimethoxy-phenylcarbamoyl)-ethylcarbamoyl]-3-methyl-butyl}-amide] | 74 | 36 | –
11 | CC(C)C[C@H](NC(=O)N1CCCCCC1)C(=O)N[C@@H](Cc1ccc(OCc2ccccc2)cc1)C(=O)NCCc1c[nH]c2ccccc12 (relative stereo) [Example 224, [S-(R*,R*)]-Azepane-1-carboxylic acid (1-{2-(4-benzyloxy-phenyl)-1-[2-(1H-indol-3-yl)-ethylcarbamoyl]-ethylcarbamoyl}-3-methyl-butyl)-amide] | 87 | 50 | –
12 | CCC(CO)NC(=O)[C@H](Cc1ccc(OCc2ccccc2)cc1)NC(=O)[C@H](CC(C)C)NC(=O)N1CCCCCC1 (relative stereo) [Example 226, [S-(R*,R*)]-Azepane-1-carboxylic acid {1-[2-(4-benzyloxy-phenyl)-1-(1-hydroxymethyl-propylcarbamoyl)-ethylcarbamoyl]-3-methyl-butyl}-amide] | 84 | 37 | –

More lines, now with the values ahead:

Row | Inhibition of Calcium Flux in IMR-32 Cells % Inhibition at 10 μM [%] | Inhibition of Calcium Flux in IMR-32 Cells % Inhibition at 1 μM [%] | IC50 [µM] | SMILES
13 | 67 | – | – | CC(C)C[C@H](NC(=O)c1ccno1)C(=O)N[C@@H](Cc1ccc(OCc2ccccc2)cc1)C(=O)OC(C)(C)C (relative stereo) [Example 123, [S-(R*,R*)]-3-(4-Benzyloxy-phenyl)-2-{2-1(isoxazole-5-carbonyl)-amino]-4-methyl-pentanoylamino}-propionic acid tert-butyl ester]
14 | 78 | – | – | CC(C)C[C@H](NC(=O)C(F)(F)F)C(=O)N[C@@H](Cc1ccc(OCc2ccccc2)cc1)C(=O)OC(C)(C)C (relative stereo) [Example 128, [S-(R*,R*)]-3-(4-Benzyloxy-phenyl)-2-[4-methyl-2-(2,2,2-trifluoro-acetylamino)pentanoylamino]-propionic acid tert-butyl ester]
15 | 74 | – | – | CC(C)C[C@H](NC(=O)C(C)(C)C)C(=O)N[C@@H](Cc1ccc(OCc2ccccc2)cc1)C(=O)OC(C)(C)C (relative stereo) [Example 129, [S-(R*,R*)]-3-(4-Benzyloxy-phenyl)-2-[2-(2,2-dimethyl-propionylamino)-4-methyl-pentanoylamino]-propionic acid tert-butyl ester]
16 | 56 | 29 | – | CC(C)C[C@H](NC(=O)N1CCCCCC1)C(=O)N[C@@H](Cc1ccc(C#Cc2ccccc2)cc1)C(=O)NC(C)(C)C (relative stereo) [Example 134, [S(R*,R*)]-Azepane-1-carboxylic acid {1-[1-tert-butylcarbamoyl-2-(4-phenylethynyl-phenyl)-ethylcarbamoyl]-3-methyl-butyl}-amide]
17 | – | – | 4.3 | CC(C)C[C@H](NC(=O)N1CCOCC1)C(=O)N[C@@H](Cc1ccc(OCc2ccccc2)cc1)C(=O)N1CCCCC1 (relative stereo) [Example 151, [S(R*,R*)]-Morpholine-4-carboxylic acid {1-[1-(4-benzyloxy-benzyl)-2oxo-2-piperidin-1-ylethylcarbamoyl]-3-methyl-butyl}amide]
18 | – | – | 0.28 | CC(C)C[C@H](NC(=O)N1CCCCCC1)C(=O)N[C@@H](Cc1ccc(OCc2ccccc2)cc1)C(=O)Nc1ccc(Br)cc1 (relative stereo) [Example 173, [S-(R*,R*)]-Azepane-1-carboxylic acid {1-[2-(4-benzyloxy-phenyl)-1-(4-bromophenylcarbamoyl)-ethylcarbamoyl]-3-methyl-butyl}-amide]
19 | 44 | 35 | – | CC(C)C[C@H](NC(=O)N1CCCCCC1)C(=O)N[C@@H](Cc1ccc(OCc2ccccc2)cc1)C(=O)Nc1ccc(N(C)C)cc1 (relative stereo) [Example 215, [S-(R*,R*)]-Azepane-1-carboxylic acid {1-[2-(4-benzyloxy-phenyl)-1-(4-dimethylamino-phenylcarbamoyl)-ethylcarbamoyl]-3-methyl-butyl}-amide]
20 | 88 | 40 | – | CC(C)C[C@H](NC(=O)N1CCCCCC1)C(=O)N[C@@H](Cc1ccc(OCc2ccccc2)cc1)C(=O)NCc1ccco1 (relative stereo) [Example 220, [S-(R*,R*)]-Azepane-1-carboxylic acid (1-{2-(4-benzyloxy-phenyl)-1-[(furan-2-ylmethyl)-carbamoyl]-ethylcarbamoyl}-3-methyl-butyl)-amide]
21 | 94 | 55 | – | CC(C)C[C@H](NC(=O)N1CCCCCC1)C(=O)N[C@@H](Cc1ccc(OCc2ccccc2)cc1)C(=O)NCCc1ccc(O)cc1 (relative stereo) [Example 225, [S-(R*,R*)]-Azepane-1-carboxylic acid (1-{2-(4-benzyloxy-phenyl)-1-[2-(4-hydroxy-phenyl)-ethylcarbamoyl]-ethylcarbamoyl}-3-methyl-butyl)-amide]
22 | 82 | 24 | – | CC(C)C[C@H](NC(=O)N1CCCCCC1)C(=O)N[C@@H](Cc1ccc(OCc2ccccc2)cc1)C(=O)N1CCN(CCOCCO)CC1 (relative stereo) [Example 228, [S-(R*,R*)]-Azepane-1-carboxylic acid-[1-(1-(4-benzyloxy-benzyl)-2-{4-[2-(2-hydroxy-ethoxy)-ethyl]-piperazin-1-yl}-2-oxo-ethylcarbamoyl)-3-methyl-butyl]-amide]
